Data: patent publication US20230123334A1, “AMINO LIPID COMPOUND, PREPARATION METHOD THEREFOR, AND APPLICATION THEREOF” (SHENZHEN SHENXIN BIOTECHNOLOGY CO., LTD., priority 2020, published 2023)

Columns and labels:
[1] = system: HEK293 cells; experiment: Preliminary screening as mRNA vectors, EGFP mRNA transfection of HEK293 cells; type: cell-based; details: HEK293 cells, 96-well plates, EGFP mRNA 50 ng per well; percentage of GFP fluorescent cells relative to total number of cells (Hoechst)
Procedure, shortened: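 Each well of HEK293 cells received 50 ng of EGFP mRNA. Efficiency was expressed as percent GFP-expressing cells over Hoechst-defined total cell number.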

[2] = system: HEK293 cells; experiment: Preliminary screening as DNA vectors, GFP transfection of HEK293 cells; type: cell-based; details: HEK293 cells; lipid/DOPE liposome with 75 ng plasmid DNA (psin-EGFP-IRES-Puro); number of cells expressing GFP divided by total number of nuclei (Hoechst)
Procedure, shortened: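 Lipid + DOPE liposomes (NaOAc, pH 5.6) complexed w/ 75 ng psin-EGFP-IRES-Puro, 30 min RT; added to 3-5×10^4 HEK293/well, 37° C. Hoechst 0.2 μg/mL at 20-24 h, imaged after further 20-24 h. Efficiency = GFP+ cells / total nuclei.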

SMILES	Absolute mRNA transfection efficiency in HEK293 cells [1] [%]	Absolute DNA transfection efficiency in HEK293 cells [2] [%]
CCCCCCCCCCCCCCCNc1nc(NCCCCCCCCCCCC)nc(NCCN2CCN(C)CC2)n1 [Compound N12N15D5]	3.1	0.4
CCCCCCCCCCCCCCCNc1nc(NCCCCCC)nc(NCCN(CC)CC)n1 [Compound N6N15D7]	0.0	0.0
CCCCCCCCCCCCCCCSc1nc(NCCN2CCCCC2)nc(SCCCCCCCCCCC)n1 [Compound S11S15D4]	0.9	5.3
CCCCCCCCCCCCCCCSc1nc(NCCCN2CCOCC2)nc(SCCCCCCCCCCCC)n1 [Compound S12S15D8]	3.2	3.1
CCCCCCCCCCCCCCCCCCNc1nc(NCCCCCCCCCCCCC)nc(NCCN2CCCC2)n1 [Compound N13N18D3]	21.5	0.5
CCCCCCCCCCCCCCSc1nc(NCCN2CCCCC2)nc(SCCCCCCCC)n1 [Compound S8S14D4]	3.1	9.3
CCCCCCCCCCCCCCCCSc1nc(NCCCN2CCOCC2)nc(SCCCCCCCCCCC)n1 [Compound S11S16D8]	0.9	4.7
CCCCCCCCCCCCN(CCCCCCCCCCCC)c1nc(NCCCCCCC)nc(NCCN(C)C)n1 [N7^2N12D1]	3.5	3.6
CCCCCCCCCCCCCCCCNc1nc(NCCCCCCCCC)nc(NCCCN2CCN(C)CC2)n1 [Compound N9N16D9]	1.1	0.0
CCCCCCCCCCCCCCSc1nc(NCCCN(C)C)nc(SCCCCCCCCCCCC)n1 [Compound S12S14D6]	4.6	4.0
CCCCCCCCCCCCCCCCNc1nc(NCCCCCCCCCCCCCCCC)nc(NCC2CCN(C)CC2)n1 [Compound N16N16D10]	0.0	0.0
CCCCCCCCCSc1nc(NCCN2CCOCC2)nc(SCCCCCCCCC)n1 [Compound S9S9D2]	3.1	6.8
CCCCCCCCNc1nc(NCCCCCC)nc(NCCN2CCN(C)CC2)n1 [Compound N6N8D5]	0.0	0.0
CCCCCCCCCCCSc1nc(NCCN2CCOCC2)nc(SCCCCCCCCCC)n1 [Compound S10S11D2]	0.6	2.2
CCCCCCCCCCCCCCCCCCNc1nc(NCCCCCCCCCCC)nc(NCCN2CCCC2)n1 [Compound N11N18D3]	2.8	0.6
CCCCCCCCCCCSc1nc(NCCN2CCN(C)CC2)nc(SCCCCCCCCCC)n1 [Compound S10S11D5]	61.1	8.4
CCCCCCCCCCCCCCSc1nc(NCCN2CCCC2)nc(SCCCCCCCC)n1 [Compound S8S14D3]	3.4	13.9
CCCCCCCCCCCCN(CCCCCCCCCCCC)c1nc(NCCCCCCCCC)nc(NCCN(C)C)n1 [N9^2N12D1]	4.7	0.0
CCCCCCCCCCCCCCCNc1nc(NCCCCCC)nc(NCCN2CCCC2)n1 [Compound N6N15D3]	0.3	0.6
CCCCCCCCCCCCCCSc1nc(NCCN2CCOCC2)nc(SCCCCCCCCCCCC)n1 [Compound S12S14D2]	0.2	0.1
CCCCCCCCCCCCCCCCNc1nc(NCCCCCCCCCCCC)nc(NCC2CCN(C)CC2)n1 [Compound N12N16D10]	0.6	0.0
CCCCCCCCCCCCCCSc1nc(NCCN2CCCCC2)nc(SCCCCCCCCCCCC)n1 [Compound S12S14D4]	14.0	6.7
CCCCCCCCCCCCCNc1nc(NCCCCCCCCCCCC)nc(NCCCN2CCN(C)CC2)n1 [Compound N12N13D9]	1.8	0.3
CCCCCCCCCNc1nc(NCCCCCCC)nc(NCC2CCN(C)CC2)n1 [Compound N7N9D10]	0.1	0.4

SMILES	Absolute mRNA transfection efficiency in HEK293 cells [1] [%]	Absolute DNA transfection efficiency in HEK293 cells [2] [%]
CCCCCCCCCCCCCNc1nc(NCCCCCCCCCCCCC)nc(NCCCN2CCN(C)CC2)n1 [Compound N13N13D9]	0.2	1.1
CCCCCCCCCCCSc1nc(NCCN(CC)CC)nc(SCCCCCCCCC)n1 [Compound S9S11D7]	2.5	8.1
CCCCCCCCCCCCNc1nc(NCCCCCCCCCCC)nc(NCCN(C)C)n1 [Compound N11N12D1]	0.3	0.0
CCCCCCCCCCCCN(CCCCCCCCCCCC)c1nc(NCCN(C)C)nc(N(CCCCCCCCCCCC)CCCCCCCCCCCC)n1 [2N12^2N12D1]	0.1	0.4
CCCCCCCCCCCCCCCCCCNc1nc(NCCCCCCCCCCCCC)nc(NCCN(CC)CC)n1 [Compound N13N18D7]	1.3	3.7
CCCCCCCCCCCCCCCSc1nc(NCCCN(C)C)nc(SCCCCCCCCCCCCCCC)n1 [Compound S15S15D6]	0.9	0.4
CCCCCCCCCCCCCCCCCCSc1nc(NCCN2CCCCC2)nc(SCCCCCCCCCC)n1 [Compound S10S18D4]	6.2	6.7
CCCCCCCNc1nc(NCCCCCC)nc(NCCN2CCOCC2)n1 [Compound N6N7D2]	0.4	0.0
CCCCCCCCCCCCN(CCCCCCCCCCCC)c1nc(NCCCCCC)nc(NCC2CCN(C)CC2)n1 [N6^2N12D10]	0.0	0.4
CCCCCCCCCCCCCCCCCCSc1nc(NCCN2CCOCC2)nc(SCCCCCCCCCCCCCC)n1 [Compound S14S18D2]	0.0	0.2
CCCCCCCNc1nc(NCCCCCCC)nc(NCCN2CCCC2)n1 [Compound N7N7D3]	0.0	0.0
CCCCCCCCCCCCN(CCCCCCCCCCCC)c1nc(NCCCN2CCN(C)CC2)nc(N(CCCCCCCCCCCC)CCCCCCCCCCCC)n1 [2N12^2N12D9]	0.0	0.2
CCCCCCCCCCCCCCCCNc1nc(NCCCCCCC)nc(NCCN2CCCC2)n1 [Compound N7N16D3]	1.3	2.3
CCCCCCCCCCCCCCCNc1nc(NCCCCCCCCC)nc(NCCCN2CCOCC2)n1 [Compound N9N15D8]	1.4	0.2
CCCCCCCCCCSc1nc(NCCN2CCCC2)nc(SCCCCCCCCCC)n1 [Compound S10S10D3]	5.0	13.6
CCCCCCCCCCCCCCCSc1nc(NCCN2CCCC2)nc(SCCCCCCCCCCC)n1 [Compound S11S15D3]	5.3	7.4
CCCCCCCCCCCCNc1nc(NCCN2CCCC2)nc(N(CCCCCCCCCCCC)CCCCCCCCCCCC)n1 [N12^2N12D3]	5.8	3.2
CCCCCCCCCCCCCCCCCCNc1nc(NCCCCCCCCCCCCC)nc(NCCN(C)C)n1 [Compound N13N18D1]	13.8	2.7
CCCCCCCCCCCCCNc1nc(NCCCCCC)nc(NCC2CCN(C)CC2)n1 [Compound N6N13D10]	0.0	0.0
CCCCCCCCCCCCCCCCSc1nc(NCC2CCN(C)CC2)nc(SCCCCCCCCCCCCCCCC)n1 [Compound S16S16D10]	2.7	0.1
CCCCCCCCCCCCN(CCCCCCCCCCCC)c1nc(NCCN2CCCCC2)nc(N(CCCCCCCCCCCC)CCCCCCCCCCCC)n1 [2N12^2N12D4]	2.6	0.0
CCCCCCCCCCCSc1nc(NCCCN2CCOCC2)nc(SCCCCCCCCCC)n1 [Compound S10S11D8]	8.3	16.4
CCCCCCCCCCCCSc1nc(NCCCN2CCN(C)CC2)nc(SCCCCCCCCCCCC)n1 [Compound S12S12D9]	1.3	1.9
